Laboratory results taken from patent US6613942B1 (Novo Nordisk A/S, priority 1997, dated 2003).

Key:
[1] = target: rat liver receptor (Rattus norvegicus, UniProt P30082); settings: literature, Bioorganic and Medicinal Chemistry Letters 2(9):915-918; cited from earlier work
Chain of rat liver receptor (P30082 27-485): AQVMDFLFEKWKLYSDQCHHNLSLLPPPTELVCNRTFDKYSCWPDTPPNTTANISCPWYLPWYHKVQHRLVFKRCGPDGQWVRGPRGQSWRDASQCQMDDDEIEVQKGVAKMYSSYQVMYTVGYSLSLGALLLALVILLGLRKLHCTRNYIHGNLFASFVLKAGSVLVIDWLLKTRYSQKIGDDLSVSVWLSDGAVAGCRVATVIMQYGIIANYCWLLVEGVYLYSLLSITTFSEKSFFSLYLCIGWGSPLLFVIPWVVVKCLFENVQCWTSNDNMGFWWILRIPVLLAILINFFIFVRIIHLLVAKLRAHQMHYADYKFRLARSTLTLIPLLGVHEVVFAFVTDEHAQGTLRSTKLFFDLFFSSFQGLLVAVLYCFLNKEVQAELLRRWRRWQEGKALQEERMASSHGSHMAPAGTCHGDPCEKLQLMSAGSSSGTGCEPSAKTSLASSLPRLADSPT

Row | SMILES | melting point | displacement of glucagon from the rat liver receptor [1]
1 | COc1cc(/C=N/NC(=O)c2ccc(O)c(Cl)c2)ccc1NC(=O)COc1ccc(OC(F)(F)F)cc1 [Example 806, N-{4-[(3-Chloro-4-hydroxybenzoyl)hydrazonomethyl]-2-methoxyphenyl}-2-(4-trifluoromethoxyphenoy)acetamide] | 216 to 218 °C | 
2 | COc1cc(/C=N/NC(=O)c2ccc(O)c(Cl)c2)ccc1NC(=O)c1ccc2ccccc2n1 [Example 807, Quinoline-2-carboxylic Acid {4-[(3-Chloro-4-hydroxybenzoyl)hydrazonomethyl]-2-methoxyphenyl}amide] | 159 to 162 °C | 
3 | COc1cc(/C=N/NC(=O)c2ccc(O)c(N)c2)cc(OC)c1OCc1ccc(C(C)C)cc1 [Example 793, 3-Amino-4-hydroxybenzoic Acid [4-(4-Isopropylbenzyloxy)-3,5-dimethoxybenzylidene]-hydrazide] | 174 to 175 °C | 
4 | COc1cc(NC(=O)c2ccc3ccccc3n2)ccc1/C=N/NC(=O)c1ccc(O)c(Cl)c1 [Example 805, Quinoline-2-carboxylic Acid (4-[(3-Chloro-4-hydroxybenzoyl)hydrazonomethyl]-3-methoxyphenyl}amide] | 236 to 238 °C | 
5 | COc1cc(NC(=O)COc2ccc(OC(F)(F)F)cc2)ccc1/C=N/NC(=O)c1ccc(O)c(Cl)c1 [Example 804] | 235 to 236.5 °C | 
6 | CN(C)CCCN(C)c1nc2cc(Cl)c(Cl)cc2nc1C=Cc1ccccc1 [(2-styryl-3-[3-(dimethylamino)propylmethyl-amino]-6,7-dichloroquinoxaline] |  | displace glucagon from the rat liver receptor

Second part, led by results:

Row | melting point | SMILES | displacement of glucagon from the rat liver receptor [1]
7 | 187 to 192 °C | Nc1cc(C(=O)N/N=C/c2ccc(OCC(=O)N[C@@H]3CCN(Cc4ccccc4)C3)c3ccccc23)ccc1O [Example 795, (R)-2-{4-[(3-Amino-4-hydroxybenzoyl)hydrazonomethyl]naphthyl-1-yloxy}-N-(1-benzylpyrrolidin-3-yl)acetamide] | 
8 | 134 to 136 °C | CCN(CC)CCN(CCOc1ccc(/C=N/NC(=O)c2ccc(O)c(Cl)c2)c2ccccc12)Cc1ccc(OC(F)(F)F)cc1 [Example 143, 3-Chloro-4-hydroxybenzoic Acid {4-[2-[N′-(2-N,N-Diethylaminoethyl)-N′-(4-trifluoromethoxy-benzylamino)]]ethoxy-1-naphthylmethylene}hydrazide] | 
9 | 162 to 164 °C | COc1cc(OCCN2CCc3ccccc3C2)ccc1/C=N/NC(=O)c1ccc(O)c(N)c1 [Example 792, 3-Amino-4-hydroxybenzoic Acid {4-[2-(1,2,3,4-Tetrahydro-isoquinolin-2-yl)ethoxy]-2-methoxybenzylidene}hydrazide] | 
10 | 192 to 193 °C | Nc1cc(C(=O)N/N=C/c2ccc(OCC(=O)N[C@H]3CCN(Cc4ccccc4)C3)c3ccccc23)ccc1O [Example 797, (S)-2-{4-[(3-Amino-4-hydroxybenzoyl)hydrazonomethyl]naphthyl-1-yloxy}-N-(1-benzylpyrrolidin-3-yl)acetamide] | 
11 | 216 to 218 °C | COc1cc(NC(=O)COc2ccc(Cl)cc2)ccc1/C=N/NC(=O)c1ccc(O)c(Cl)c1 [Example 808, N-(4-[(3-Chloro-4-hydroxybenzoyl)hydrazonomethyl]-3-methoxyphenyl}-2-(4-chlorophenoxy)acetamide] | 
12 | 157 to 160 °C | COc1cc(OCC(=O)NC2CCN(Cc3ccccc3)C2)ccc1/C=N/NC(=O)c1ccc(O)c(N)c1 [Example 794, (R)-2-{4-[(3-Amino-4-hydroxybenzoyl)hydrazonomethyl]-3-methoxyphenoxy}-N-(1-benzylpyrrolidin-3-yl)acetamide] | 
